Earlier results in patent US20040028754A1, “Use of phyllanthus component for the treatment or prophylaxis of infections triggered by flaviviridae” (priority 2000, published 2004).

How the values were obtained:
[1] = test system: Ca^2+-dependent protein kinase of the wheat embryo
[2] = test system: Ca^2+- and phospholipid-dependent protein kinase C (PKC) of the rat brain
[3] = target: T1, cAMP-dependent protein kinase of the rat liver (Rattus norvegicus, UniProt P27791)
T1 construct: the cAMP-dependent protein kinase of the rat liver; from tissue; host or cells: rat liver

Bacillus subtilis = conditions: 0.1 ml; extract 50 mg/ml, streptomycin 10 mg/ml
Staphylococcus aureus = conditions: 0.1 ml; extract 50 mg/ml, streptomycin 10 mg/ml

Compound | inhibition of protein kinase [1] | inhibition of protein kinase [2] | inhibition of protein kinase [3] | inhibition zone (Bacillus subtilis) | inhibition zone (Staphylococcus aureus)
geraiin | most effective | most effective | most effective | – | –
[H]/N=C(/N)N[C@H]1[C@H](O)[C@@H](O)[C@H](O[C@@H]2O[C@@H](C)[C@](O)(C=O)[C@H]2O[C@@H]2O[C@@H](CO)[C@H](O)[C@@H](O)[C@@H]2NC)[C@@H](N/C(N)=N\[H])[C@@H]1O [streptomycin] | – | – | – | 35 mm | 35 mm
O=C1OC2C3OC(=O)C4=CC(=O)C5(O)Oc6c(O)c(O)cc(c6C4C5(O)O)C(=O)OC2C(OC(=O)c2cc(O)c(O)c(O)c2)OC3COC(=O)c2cc(O)c(O)c3c2C2C1=CC(=O)C(O)(O3)C2(O)O (centres unmarked) [amariin] | most effective | most effective | most effective | – | –
